Measured values as given in ChEMBL document CHEMBL1140659, “Respiratory syncytial virus fusion inhibitors. Part 5: Optimization of benzimidazole substitution patterns towards derivatives with improved activity” (Bioorg Med Chem Lett, 2007).

Experiments:
[1] = test system: Respiratory syncytial virus; experiment: Antiviral activity against RSV long A with F1 protein K394R mutation in HEp2 cells; type: functional, organism-based
[2] = Cytotoxicity against human HEp2 cells; type: cell-based, HEp-2
[3] = Therapeutic index, ratio of CC50 for HEp2 to EC50 for RSV long A; conditions: human, HEp2 cells; read-out: Ratio CC50/EC50

SMILES: O=c1n(Cc2nc3ccccc3n2CCCCO)c2cnccc2n1C1CC1
- EC50 [1]: > 20 µM

SMILES: CC(C)CCn1c(Cn2c(=O)n(C(C)C)c3ccccc32)nc2ccc(C(=O)O)cc21
- EC50 [1]: 238 µM
- CC50 [2]: 125 µM
- selectivity ratio [3]: 0.525

SMILES: CC(C)CCn1c(Cn2c(=O)n(C(C)C)c3ccccc32)nc2ccc(CN)cc21
- EC50 [1]: 0.095 µM
- CC50 [2]: 28.1 µM
- selectivity ratio [3]: 296

SMILES: CNCc1ccc2nc(Cn3c(=O)n(C(C)C)c4ccccc43)n(CCC(C)C)c2c1
- EC50 [1]: 187 µM
- CC50 [2]: 4.81 µM
- selectivity ratio [3]: 0.026

SMILES: CC(C)CCn1c(Cn2c(=O)n(C(C)C)c3ccccc32)nc2ccc(CN(C)C)cc21
- EC50 [1]: 182 µM
- CC50 [2]: 26.7 µM
- selectivity ratio [3]: 0.026

SMILES: CC(C)CCn1c(Cn2c(=O)n(C(C)C)c3ccccc32)nc2ccc(CCN)cc21
- EC50 [1]: 7.11 µM
- CC50 [2]: 57 µM
- selectivity ratio [3]: 8.02

SMILES: CC(C)CCn1c(Cn2c(=O)n(C(C)C)c3ccccc32)nc2c(CCN)cccc21
- EC50 [1]: 0.23 µM
- CC50 [2]: 3.92 µM
- selectivity ratio [3]: 17

SMILES: CC(C)CCn1c(Cn2c(=O)n(C(C)C)c3ccccc32)nc2c(CCCN)cccc21
- EC50 [1]: 213 µM
- CC50 [2]: 2.34 µM
- selectivity ratio [3]: 0.011

SMILES: CC(=O)c1ccc2c(c1)nc(Cn1c(=O)n(C)c3ccccc31)n2CCC(C)C
- EC50 [1]: 0.193 µM
- CC50 [2]: 5.2 µM
- selectivity ratio [3]: 39.8

SMILES: CC(C)CCn1c(Cn2c(=O)n(C(C)C)c3ccccc32)nc2cc(C(N)=O)ccc21
- EC50 [1]: 0.166 µM
- CC50 [2]: 23.4 µM
- selectivity ratio [3]: 141

SMILES: CC(C)CCn1c(Cn2c(=O)n(C(C)C)c3ccccc32)nc2cc(C(=O)N(C)C)ccc21
- EC50 [1]: 24.8 µM
- CC50 [2]: 25.6 µM
- selectivity ratio [3]: 1.03

SMILES: CC(C)CCn1c(Cn2c(=O)n(CC(=O)OC(C)(C)C)c3ccccc32)nc2cc(C(=N)N)ccc21
- EC50 [1]: 0.009 µM
- CC50 [2]: 7.9 µM
- selectivity ratio [3]: 878

SMILES: CC(C)CCn1c(Cn2c(=O)n(CC(=O)O)c3ccccc32)nc2cc(C(=N)N)ccc21
- EC50 [1]: 0.031 µM
- CC50 [2]: 173 µM
- selectivity ratio [3]: 5570

SMILES: C=C(C)n1c(=O)n(Cc2nc3cc(/C(N)=N\O)ccc3n2CCC(C)C)c2ccccc21
- EC50 [1]: 0.005 µM
- CC50 [2]: 3.47 µM
- selectivity ratio [3]: 694

SMILES: CC(C)CCn1c(Cn2c(=O)n(C(C)C)c3ccccc32)nc2cc(CF)ccc21
- EC50 [1]: 0.047 µM
- CC50 [2]: 37.3 µM
- selectivity ratio [3]: 793

SMILES: CC(C)CCn1c(Cn2c(=O)n(C(C)C)c3ccccc32)nc2cc(N)ccc21
- EC50 [1]: 0.125 µM
- CC50 [2]: 32.2 µM
- selectivity ratio [3]: 258

SMILES: CC(C)CCn1c(Cn2c(=O)n(CC(=O)OC(C)(C)C)c3ccccc32)nc2cc(/C(N)=N\O)ccc21
- EC50 [1]: 0.016 µM
- CC50 [2]: 19.8 µM
- selectivity ratio [3]: 1240

SMILES: CC(C)CCn1c(Cn2c(=O)n(C(C)C)c3ccccc32)nc2cc(CO)ccc21
- EC50 [1]: 0.05 µM
- CC50 [2]: 31.6 µM
- selectivity ratio [3]: 632

SMILES: CC(C)CCn1c(Cn2c(=O)n(C(C)C)c3ccccc32)nc2cccc(CO)c21
- EC50 [1]: 246 µM
- CC50 [2]: 246 µM
- selectivity ratio [3]: 1

SMILES: CC(C)CCn1c(Cn2c(=O)n(C(C)C)c3ccccc32)nc2cccc(N=[N+]=[N-])c21
- EC50 [1]: 3.7 µM
- CC50 [2]: 57.9 µM
- selectivity ratio [3]: 15.6

SMILES: COCc1cccc2c1nc(Cn1c(=O)n(C(C)C)c3ccccc31)n2CCC(C)C
- EC50 [1]: 7.5 µM
- CC50 [2]: 26.7 µM
- selectivity ratio [3]: 3.56

SMILES: COC(=O)c1cccc2c1nc(Cn1c(=O)n(C(C)C)c3ccccc31)n2CCC(C)C
- EC50 [1]: 230 µM
- CC50 [2]: 49.2 µM
- selectivity ratio [3]: 0.213

SMILES: CC(C)CCn1c(Cn2c(=O)n(C(C)C)c3ccccc32)nc2c(CC#N)cccc21
- EC50 [1]: 241 µM
- CC50 [2]: 116 µM
- selectivity ratio [3]: 0.482

SMILES: CC(C)CCn1c(Cn2c(=O)n(C(C)C)c3ccccc32)nc2cc(Br)ccc21
- EC50 [1]: 0.018 µM
- CC50 [2]: 18.1 µM
- selectivity ratio [3]: 1010

SMILES: CC(C)CCn1c(Cn2c(=O)n(C(C)C)c3ccccc32)nc2cc(C#N)ccc21
- EC50 [1]: 0.476 µM
- CC50 [2]: 7.93 µM
- selectivity ratio [3]: 16.6

SMILES: CCc1ccc2c(c1)nc(Cn1c(=O)n(C(C)C)c3ccccc31)n2CCC(C)C
- EC50 [1]: 0.692 µM
- CC50 [2]: 18.5 µM
- selectivity ratio [3]: 26.8

SMILES: CC(C)CCn1c(Cn2c(=O)n(C(C)C)c3ccccc32)nc2cc(-c3ncon3)ccc21
- EC50 [1]: 21.6 µM
- CC50 [2]: 223 µM
- selectivity ratio [3]: 10.3

SMILES: CC(C)CCn1c(Cn2c(=O)n(C(C)C)c3ccccc32)nc2cc(CN)ccc21
- EC50 [1]: 0.002 µM
- CC50 [2]: 3.92 µM
- selectivity ratio [3]: 1960

SMILES: CNCc1ccc2c(c1)nc(Cn1c(=O)n(C(C)C)c3ccccc31)n2CCC(C)C
- EC50 [1]: 0.057 µM
- CC50 [2]: 1.48 µM
- selectivity ratio [3]: 26

SMILES: CC(C)CCn1c(Cn2c(=O)n(C(C)C)c3ccccc32)nc2cc(CNC3CC3)ccc21
- EC50 [1]: 0.363 µM
- CC50 [2]: 17.2 µM
- selectivity ratio [3]: 47.3

SMILES: CC(C)CCn1c(Cn2c(=O)n(CC(=O)OC(C)(C)C)c3ccccc32)nc2cc(C#N)ccc21
- EC50 [1]: 2.55 µM
- CC50 [2]: 32.2 µM
- selectivity ratio [3]: 12.6

SMILES: CC(C)CCn1c(Cn2c(=O)n(C(C)C)c3ccccc32)nc2cc(CC#N)ccc21
- EC50 [1]: 0.117 µM
- CC50 [2]: 13.3 µM
- selectivity ratio [3]: 114

SMILES: C=C(C)n1c(=O)n(Cc2nc3cc(C(=O)O)ccc3n2CCC(C)C)c2ccccc21
- EC50 [1]: 264 µM
- CC50 [2]: 30 µM
- selectivity ratio [3]: 0.11

SMILES: CC(C)CCn1c(Cn2c(=O)n(C(C)C)c3ccccc32)nc2cc(C(=O)O)ccc21
- EC50 [1]: 238 µM
- CC50 [2]: 17.3 µM
- selectivity ratio [3]: 0.07

SMILES: CC(C)CCn1c(Cn2c(=O)n(C(C)C)c3ccccc32)nc2cc(-c3nn[nH]n3)ccc21
- EC50 [1]: 225 µM
- CC50 [2]: 2 µM
- selectivity ratio [3]: 0.009

SMILES: CC(=O)NCc1ccc2c(c1)nc(Cn1c(=O)n(C(C)C)c3ccccc31)n2CCC(C)C
- EC50 [1]: 0.631 µM
- CC50 [2]: 178 µM
- selectivity ratio [3]: 282

SMILES: CC(C)CCn1c(Cn2c(=O)n(C(C)C)c3ccccc32)nc2cc(CNS(C)(=O)=O)ccc21
- EC50 [1]: 0.725 µM
- CC50 [2]: 30.8 µM
- selectivity ratio [3]: 42.4

SMILES: CC(C)CCn1c(Cn2c(=O)n(C(C)C)c3ccccc32)nc2cc(C(C)(C)N)ccc21
- EC50 [1]: 0.694 µM
- CC50 [2]: 3.27 µM
- selectivity ratio [3]: 4.71

SMILES: CC(C)CCn1c(Cn2c(=O)n(C(C)C)c3ccccc32)nc2cccc(CN)c21
- EC50 [1]: 192 µM
- CC50 [2]: 11 µM
- selectivity ratio [3]: 0.058

SMILES: COC(=O)c1cccc2nc(Cn3c(=O)n(C(C)C)c4ccccc43)n(CCC(C)C)c12
- EC50 [1]: 230 µM
- CC50 [2]: 25.3 µM
- selectivity ratio [3]: 0.11

SMILES: CC(C)CCn1c(Cn2c(=O)n(C(C)C)c3ccccc32)nc2ccc(C#N)cc21
- EC50 [1]: 0.044 µM
- CC50 [2]: 10 µM
- selectivity ratio [3]: 228

SMILES: CC(C)CCn1c(Cn2c(=O)n(C(C)C)c3ccccc32)nc2cc(CCN)ccc21
- EC50 [1]: 4.33 µM
- CC50 [2]: 11 µM
- selectivity ratio [3]: 2.54

SMILES: CC(C)CCn1c(Cn2c(=O)n(C(C)C)c3ccccc32)nc2cc(CN(C)C)ccc21
- EC50 [1]: 183 µM
- CC50 [2]: 5.65 µM
- selectivity ratio [3]: 0.031

SMILES: C=C(C)n1c(=O)n(Cc2nc3cc(C(=N)N)ccc3n2CCC(C)C)c2ccccc21
- EC50 [1]: 0.004 µM
- CC50 [2]: 10.8 µM
- selectivity ratio [3]: 2700

SMILES: CC(C)CCn1c(Cn2c(=O)n(C(C)C)c3ccccc32)nc2ccc(C(N)=O)cc21
- EC50 [1]: 123 µM
- CC50 [2]: 49.9 µM
- selectivity ratio [3]: 0.406

SMILES: C=C(C)n1c(=O)n(Cc2nc3cc(C#N)ccc3n2CCC(C)C)c2ccccc21
- EC50 [1]: 0.057 µM
- CC50 [2]: 1.48 µM
- selectivity ratio [3]: 26

SMILES: C=C(C)n1c(=O)n(Cc2nc3cc(C(C)=O)ccc3n2CCC(C)C)c2ccccc21
- EC50 [1]: 0.179 µM
- CC50 [2]: 0.74 µM
- selectivity ratio [3]: 4.1

SMILES: C=Cc1ccc2c(c1)nc(Cn1c(=O)n(C(C)C)c3ccccc31)n2CCC(C)C
- EC50 [1]: 0.63 µM
- CC50 [2]: 6.52 µM
- selectivity ratio [3]: 10.3

SMILES: CC(C)CCn1c(Cn2c(=O)n(C(C)C)c3ccccc32)nc2cc(/C(N)=N\O)ccc21
- EC50 [1]: 0.111 µM
- CC50 [2]: 9.14 µM
- selectivity ratio [3]: 82.2

SMILES: CC(C)CCn1c(Cn2c(=O)n(C)c3ccccc32)nc2cc(-c3nnn(C)n3)ccc21
- EC50 [1]: 239 µM
- CC50 [2]: 2.97 µM
- selectivity ratio [3]: 0.012

SMILES: COC(=O)c1ccc2c(c1)nc(Cn1c(=O)n(C(C)C)c3ccccc31)n2CCC(C)C
- EC50 [1]: 230 µM
- CC50 [2]: 33.7 µM
- selectivity ratio [3]: 0.15

SMILES: CC(C)CCn1c(Cn2c(=O)n(C(C)C)c3ccccc32)nc2c(CO)cccc21
- EC50 [1]: 0.82 µM
- CC50 [2]: 22 µM
- selectivity ratio [3]: 26.8

SMILES: CC(C)CCn1c(Cn2c(=O)n(C(C)C)c3ccccc32)nc2c(CCC#N)cccc21
- EC50 [1]: 234 µM
- CC50 [2]: 2.24 µM
- selectivity ratio [3]: 0.096

SMILES: CC(C)CCn1c(Cn2c(=O)n(C(C)C)c3ccccc32)nc2c(CN)cccc21
- EC50 [1]: 0.715 µM
- CC50 [2]: 7 µM
- selectivity ratio [3]: 9.78

SMILES: C=C(C)n1c(=O)n(Cc2nc3ccccc3n2CCC(C)C)c2ccccc21
- EC50 [1]: 0.004 µM
- CC50 [2]: 24.6 µM
- selectivity ratio [3]: 6160

SMILES: CC(C)CCn1c(Cn2c(=O)n(C(C)C)c3ccccc32)nc2ccc(CO)cc21
- EC50 [1]: 0.134 µM
- CC50 [2]: 81.6 µM
- selectivity ratio [3]: 609

SMILES: N=C(N)c1ccc2nc(Cc3nc4ccc(C(=N)N)cc4[nH]3)[nH]c2c1
- EC50 [1]: 100 µM
